Results as given in ChEMBL document CHEMBL1909046, “DrugMatrix in vitro pharmacology data”.

How the values were obtained:
[1] = target: T1, Alpha-1D adrenergic receptor (Homo sapiens, UniProt P25100); assay type: cell membranes, HEK293, Membrane; conditions: hek293; further: in other assays of this panel Not Active means under 50% inhibition at 10 µM
T1 sequence (P25100 whole entry): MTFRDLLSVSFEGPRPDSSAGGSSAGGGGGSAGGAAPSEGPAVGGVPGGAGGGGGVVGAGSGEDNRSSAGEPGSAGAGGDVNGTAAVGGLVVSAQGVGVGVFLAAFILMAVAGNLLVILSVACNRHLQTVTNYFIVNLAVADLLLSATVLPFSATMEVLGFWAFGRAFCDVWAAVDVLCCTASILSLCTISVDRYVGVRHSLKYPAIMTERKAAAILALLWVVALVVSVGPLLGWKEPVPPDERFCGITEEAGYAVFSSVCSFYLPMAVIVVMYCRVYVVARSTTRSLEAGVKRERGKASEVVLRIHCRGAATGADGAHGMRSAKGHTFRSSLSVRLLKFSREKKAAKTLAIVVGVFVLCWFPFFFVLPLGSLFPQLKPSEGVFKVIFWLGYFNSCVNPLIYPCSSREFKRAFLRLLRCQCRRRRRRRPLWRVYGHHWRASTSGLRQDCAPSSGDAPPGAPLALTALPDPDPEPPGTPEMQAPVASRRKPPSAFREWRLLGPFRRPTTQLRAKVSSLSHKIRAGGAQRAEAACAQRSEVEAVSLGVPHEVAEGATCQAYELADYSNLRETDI

[2] = DRUGMATRIX: GABAA, Flunitrazepam, Central radioligand binding (ligand: [3H] Flunitrazepam); assay type: cell membranes, Rattus norvegicus, Wistar, Brain, Membrane; conditions: Not Active = under 50% inhibition at 10 µM
[3] = DRUGMATRIX: ATPase, Na+/K+ enzyme inhibition (substrate: ATP); assay type: tissue-based, Sus scrofa, Heart; conditions: Not Active = under 50% inhibition at 10 µM
[4] = target: T2, Receptor-type tyrosine-protein phosphatase C (Homo sapiens, UniProt P08575); design: species or system Escherichia coli;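 further: inhibition of CD45 enzyme activity measured using DiFMUP as substrate; in other assays of this panel Not Active means under 50% inhibition at 10 µM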
T2 sequence (P08575 whole entry): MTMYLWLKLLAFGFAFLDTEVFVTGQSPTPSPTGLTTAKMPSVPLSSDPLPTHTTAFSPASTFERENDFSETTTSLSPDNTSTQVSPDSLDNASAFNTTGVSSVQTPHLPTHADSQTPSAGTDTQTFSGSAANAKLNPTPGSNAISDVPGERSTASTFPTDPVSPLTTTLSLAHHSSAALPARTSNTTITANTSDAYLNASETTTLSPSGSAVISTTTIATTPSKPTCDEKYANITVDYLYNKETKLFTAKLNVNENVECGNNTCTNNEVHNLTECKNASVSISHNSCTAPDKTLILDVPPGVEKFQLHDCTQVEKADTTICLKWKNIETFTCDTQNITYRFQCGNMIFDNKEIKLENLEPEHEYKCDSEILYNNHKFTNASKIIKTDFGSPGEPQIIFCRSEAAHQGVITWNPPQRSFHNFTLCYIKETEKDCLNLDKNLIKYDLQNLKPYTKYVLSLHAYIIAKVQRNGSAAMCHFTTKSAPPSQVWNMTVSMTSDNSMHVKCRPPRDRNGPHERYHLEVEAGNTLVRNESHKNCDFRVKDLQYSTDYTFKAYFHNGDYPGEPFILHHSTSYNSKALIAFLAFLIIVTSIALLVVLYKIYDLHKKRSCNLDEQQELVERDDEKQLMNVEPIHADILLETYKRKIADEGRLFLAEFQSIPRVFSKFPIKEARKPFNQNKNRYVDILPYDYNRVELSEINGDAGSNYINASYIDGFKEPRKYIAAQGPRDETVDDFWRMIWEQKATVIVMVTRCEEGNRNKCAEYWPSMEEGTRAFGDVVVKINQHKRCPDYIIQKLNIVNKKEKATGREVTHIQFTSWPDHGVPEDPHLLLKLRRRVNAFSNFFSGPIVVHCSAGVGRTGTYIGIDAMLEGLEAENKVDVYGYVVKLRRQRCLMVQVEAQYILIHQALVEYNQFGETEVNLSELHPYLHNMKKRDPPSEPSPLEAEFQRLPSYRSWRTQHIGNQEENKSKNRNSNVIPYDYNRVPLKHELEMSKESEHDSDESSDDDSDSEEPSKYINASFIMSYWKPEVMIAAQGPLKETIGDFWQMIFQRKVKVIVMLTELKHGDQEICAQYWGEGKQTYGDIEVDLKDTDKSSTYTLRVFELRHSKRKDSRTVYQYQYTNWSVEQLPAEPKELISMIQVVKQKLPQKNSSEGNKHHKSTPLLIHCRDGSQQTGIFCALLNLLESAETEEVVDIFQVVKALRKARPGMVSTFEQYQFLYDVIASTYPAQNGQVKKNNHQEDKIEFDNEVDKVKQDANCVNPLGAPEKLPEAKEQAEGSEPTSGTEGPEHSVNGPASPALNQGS

[5] = target: T3, Vasoactive intestinal polypeptide receptor 1 (Homo sapiens, UniProt P32241); assay type: cell membranes, Membrane; conditions: ht-29; further: in other assays of this panel Not Active means under 50% inhibition at 10 µM
T3 sequence (P32241 whole entry): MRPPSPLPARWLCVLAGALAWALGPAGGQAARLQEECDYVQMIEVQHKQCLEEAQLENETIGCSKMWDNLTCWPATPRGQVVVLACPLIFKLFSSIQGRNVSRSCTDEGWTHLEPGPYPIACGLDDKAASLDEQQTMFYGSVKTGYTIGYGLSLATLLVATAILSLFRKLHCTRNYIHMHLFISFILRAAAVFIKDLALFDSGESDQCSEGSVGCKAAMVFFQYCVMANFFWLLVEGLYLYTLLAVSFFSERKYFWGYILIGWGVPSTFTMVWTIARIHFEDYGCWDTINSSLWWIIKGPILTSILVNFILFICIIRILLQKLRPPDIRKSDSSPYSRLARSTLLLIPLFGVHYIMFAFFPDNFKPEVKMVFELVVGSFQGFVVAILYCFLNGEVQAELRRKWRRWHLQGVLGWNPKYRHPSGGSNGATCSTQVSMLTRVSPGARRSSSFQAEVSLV

[6] = target: Aldo-keto reductase family 1 member B1 (Rattus norvegicus, UniProt P07943); assay: biochemical; assay type: tissue-based, Lens of camera-type eye;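 further: inhibition of aldose reductase enzyme activity, measured with DL-glyceraldehyde as the substrate; in other assays of this panel Not Active means under 50% inhibition at 10 µM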
[7] = DRUGMATRIX: Purinergic P2X radioligand binding (ligand: [3H] alpha, beta-Methylene-ATP); assay type: cell membranes, Oryctolagus cuniculus, New Zealand albino, Urinary bladder, Membrane; conditions: Not Active = under 50% inhibition at 10 µM

COc1cc(NS(=O)(=O)c2ccc(N)cc2)nc(OC)n1 [SULFADIMETHOXINE]
Not Active: IC50 [1] | IC50 [2] | Ki [2] | IC50 [3] | Ki [3] | IC50 [4] | IC50 [5] | IC50 [6] | IC50 [7] | Ki [7]

Cc1cc(C)nc(NS(=O)(=O)c2ccc(N)cc2)n1 [SULFAMETHAZINE]
Not Active: IC50 [1] | IC50 [2] | Ki [2] | IC50 [3] | Ki [3] | IC50 [4] | IC50 [5] | IC50 [6] | IC50 [7] | Ki [7]

C[C@]1(Cn2ccnn2)[C@H](C(=O)O)N2C(=O)C[C@H]2S1(=O)=O [TAZOBACTAM]
Not Active: IC50 [1] | IC50 [2] | Ki [2] | IC50 [3] | Ki [3] | IC50 [4] | IC50 [5] | IC50 [6] | IC50 [7] | Ki [7]

CN1C(C(=O)Nc2ccccn2)=C(O)c2sccc2S1(=O)=O [TENOXICAM]
Not Active: IC50 [1] | IC50 [2] | Ki [2] | IC50 [3] | Ki [3] | IC50 [4] | IC50 [5] | IC50 [6] | IC50 [7] | Ki [7]

CC(C)(C)c1ccc(C(O)CCCN2CCC(C(O)(c3ccccc3)c3ccccc3)CC2)cc1 (stereo not given) [TERFENADINE]
Not Active: IC50 [1] | IC50 [2] | Ki [2] | IC50 [3] | Ki [3] | IC50 [4] | IC50 [5] | IC50 [6] | IC50 [7] | Ki [7]

O=C1CCC(N2C(=O)c3ccccc3C2=O)C(=O)N1 (stereo not given) [THALIDOMIDE]
Not Active: IC50 [1] | IC50 [2] | Ki [2] | IC50 [3] | Ki [3] | IC50 [4] | IC50 [5] | IC50 [6] | IC50 [7] | Ki [7]

Cc1cccc(Nc2ccncc2S(=O)(=O)NC(=O)NC(C)C)c1 [TORSEMIDE]
Not Active: IC50 [1] | IC50 [2] | Ki [2] | IC50 [3] | Ki [3] | IC50 [4] | IC50 [5] | IC50 [6] | IC50 [7] | Ki [7]

CC(C)C[C@H](NC(=O)[C@@H](O)[C@H](N)Cc1ccccc1)C(=O)O [UBENIMEX]
Not Active: IC50 [1] | IC50 [2] | Ki [2] | IC50 [3] | Ki [3] | IC50 [4] | IC50 [5] | IC50 [6] | IC50 [7] | Ki [7]

Cc1onc(-c2ccccc2)c1-c1ccc(S(N)(=O)=O)cc1 [VALDECOXIB]
Not Active: IC50 [1] | IC50 [2] | Ki [2] | IC50 [3] | Ki [3] | IC50 [4] | IC50 [5] | IC50 [6] | IC50 [7] | Ki [7]

CC[C@]1(O)C[C@@H]2CN(CCc3c([nH]c4ccccc34)[C@@](C(=O)OC)(c3cc4c(cc3OC)N(C)[C@H]3[C@@](O)(C(=O)OC)[C@H](OC(C)=O)[C@]5(CC)C=CCN6CC[C@]43[C@@H]65)C2)C1 [VINBLASTINE]
Not Active: IC50 [1] | IC50 [2] | Ki [2] | IC50 [3] | Ki [3] | IC50 [4] | IC50 [5] | IC50 [6] | IC50 [7] | Ki [7]

CC(=O)CC(c1ccccc1)c1c(O)c2ccccc2oc1=O (stereo not given) [WARFARIN]
Not Active: IC50 [1] | IC50 [2] | Ki [2] | IC50 [3] | Ki [3] | IC50 [4] | IC50 [5] | IC50 [6] | IC50 [7] | Ki [7]

C[C@@H](N)[C@H]1CC[C@H](C(=O)Nc2ccncc2)CC1 [Y-27632]
Not Active: IC50 [1] | IC50 [2] | Ki [2] | IC50 [3] | Ki [3] | IC50 [4] | IC50 [5] | IC50 [6] | IC50 [7] | Ki [7]

[Cl-].[Cl-].[Zn+2] [ZINC CHLORIDE]
Not Active: IC50 [1] | IC50 [2] | Ki [2] | IC50 [3] | Ki [3] | IC50 [4] | IC50 [5] | IC50 [6] | IC50 [7] | Ki [7]
